Reference: paper PMC4737078, “Cytochrome P450 CYP71BE5 in grapevine (Vitis vinifera) catalyzes the formation of the spicy aroma compound (−)-rotundone” (Journal of Experimental Botany, 2015)

Legend:
[1] = molecular target: T1, VvSTO6 (Vitis vinifera, UniProt A0A0S3QPS9); experiment: GC-MS of reaction products, recombinant yeast microsomes; format: biochemical; conditions: 100 μM substrate, 1 mM NADPH, 50 mM Tris-HCl pH 7.5, 30 °C, 2 h; unidentified products presumed mono-hydroxylated sesquiterpenes
T1 construct: gene CYP71BE10
T1 sequence (A0A0S3QPS9 1-505): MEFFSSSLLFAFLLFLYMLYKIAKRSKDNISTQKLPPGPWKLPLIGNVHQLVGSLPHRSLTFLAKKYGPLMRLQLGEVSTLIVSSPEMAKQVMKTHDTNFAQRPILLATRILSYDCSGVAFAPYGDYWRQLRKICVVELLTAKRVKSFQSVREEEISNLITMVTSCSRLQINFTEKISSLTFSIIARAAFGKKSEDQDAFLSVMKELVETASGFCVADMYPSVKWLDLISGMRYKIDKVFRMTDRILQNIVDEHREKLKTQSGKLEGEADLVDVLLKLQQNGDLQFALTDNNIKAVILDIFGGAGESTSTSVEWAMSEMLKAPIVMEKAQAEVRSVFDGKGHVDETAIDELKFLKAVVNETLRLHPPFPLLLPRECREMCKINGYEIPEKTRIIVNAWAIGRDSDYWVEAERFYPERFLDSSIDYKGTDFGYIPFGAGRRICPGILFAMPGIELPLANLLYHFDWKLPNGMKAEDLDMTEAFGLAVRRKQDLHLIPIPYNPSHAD

[2] = molecular target: T2, VvSTO4 (Vitis vinifera, UniProt A0A0S3QPU4); experiment: as above; format: biochemical; conditions: 100 μM substrate, 1 mM NADPH, 50 mM Tris-HCl pH 7.5, 30 °C, 2 h; unidentified products presumed mono-hydroxylated sesquiterpenes
T2 construct: gene CYP71BE1
T2 sequence (A0A0S3QPU4 1-504): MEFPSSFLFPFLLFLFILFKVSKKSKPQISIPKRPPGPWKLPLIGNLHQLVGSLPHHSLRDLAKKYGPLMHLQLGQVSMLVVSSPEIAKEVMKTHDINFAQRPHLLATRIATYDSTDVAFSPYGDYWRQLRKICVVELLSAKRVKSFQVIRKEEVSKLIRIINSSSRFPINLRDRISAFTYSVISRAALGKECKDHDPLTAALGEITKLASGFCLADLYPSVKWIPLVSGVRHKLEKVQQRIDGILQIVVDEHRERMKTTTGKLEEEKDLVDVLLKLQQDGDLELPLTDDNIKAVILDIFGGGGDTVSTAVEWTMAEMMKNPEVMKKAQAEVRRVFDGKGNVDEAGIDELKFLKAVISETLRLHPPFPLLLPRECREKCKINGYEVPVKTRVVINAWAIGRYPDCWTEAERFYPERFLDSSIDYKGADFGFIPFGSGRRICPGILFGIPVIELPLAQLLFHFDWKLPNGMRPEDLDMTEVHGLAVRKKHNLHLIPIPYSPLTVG

[3] = substrate: C=C(C)[C@@H]1CCC2=CCC[C@@H](C)[C@]2(C)C1; experiment: cells, lysate or membranes; conditions: 1 mM NADPH, 50 mM Tris-HCl pH 7.5, 30 °C, 30 min, 2–100 μM substrate
[4] = substrate: C=C(C)[C@@H]1CC[C@H](C)C2=C(C1)[C@@H](C)CC2; experiment: GC-MS (SBSE) of (−)-rotundone formation, Hanes-Woolf plot, recombinant yeast microsomes; format: biochemical, Vitis vinifera; conditions: 1 mM NADPH, 50 mM Tris-HCl pH 7.5, 30 °C, 30 min, 2.6–130 μM substrate

Molecule: C=C(C)[C@@H]1CC[C@H](C)C2=C(C1)[C@@H](C)CC2 [α-guaiene]
- GC-MS of reaction products, recombinant yeast microsomes [1]: VvSTO4 and VvSTO6 produced several reaction products with α-guaiene as a substrate
- GC-MS of reaction products, recombinant yeast microsomes [2]: VvSTO4 and VvSTO6 produced several reaction products with α-guaiene as a substrate

B1: VvSTO2 (Vitis vinifera) (protein)
chain: MELQFSFFPILCTFLLFIYLLKRLGKPSRTNHPAPKLPPGPWKLPIIGNMHQLVGSLPHRSLRSLAKKHGPLMHLQLGEVSAIVVSSREMAKEVMKTHDIIFSQRPCILAASIVSYDCTDIAFAPYGGYWRQIRKISVLELLSAKRVQSFRSVREEEVLNLVRSVSLQEGVLINLTKSIFSLTFSIISRTAFGKKCKDQEAFSVTLDKFADSAGGFTIADVFPSIKLLHVVSGMRRKLEKVHKKLDRILGNIINEHKARSAAKETCEAEVDDDLVDVLLKVQKQGDLEFPLTMDNIKAVLLDLFVAGTETSSTAVEWAMAEMLKNPRVMAKAQAEVRDIFSRKGNADETVVRELKFLKLVIKETLRLHPPVPLLIPRESRERCAINGYEIPVKTRVIINAWAIARDPKYWTDAESFNPERFLDSSIDYQGTNFEYIPFGAGRRMCPGILFGMANVELALAQLLYHFDWKLPNGARHEELDMTEGFRTSTKRKQDLYLIPITYRPLPVE
- Km [3]: 35 µM
- Km [4]: 30 µM
